Reference: patent publication US8629180B2, “Antiseptic agent composition” (Taiyo Corporation, priority 2009, dated 2014)

Experiments:
S. aureus = assay: Antiseptic and bactericidal effect found by the applicant (background); format: cell-based; settings: background statement, the present applicant has found
E. coli = assay: as above; format: cell-based; settings: background statement, the present applicant has found

In the case of glycerin ricinoleic acid monoester, the “antiseptic and bactericidal effects on S. aureus (in words)” value (S. aureus) is reported as “exerts antiseptic and bactericidal effects” and the “antiseptic and bactericidal effect on E. coli (in words)” value (E. coli) is reported as “almost no antiseptic and bactericidal effect”.
